pIC50: −log10 of the molar value.
Experiments:
[1] = tested on: Human immunodeficiency virus 1; assay: (§1) Antiviral activity against HIV-1 NL4-3 infected in human TZM-bl cells infected with supernatants from virus-infected human H9 cells treated with compound for 72 hrs assessed as reduction in luciferase expression measured after 48 hrs by luciferase reporter gene assay based BiCycle assay; assay type: functional, organism-based; details: Human immunodeficiency virus 1, NL4-3
[2] = target: ATP-dependent RNA helicase DDX3X (Homo sapiens, UniProt O00571); assay: Inhibition of human DDX3X using dsRNA as substrate measured every 30 sec for 40 mins by FRET assay; details: for pIC50: read-out: IC50
[3] = Apparent permeability of compound incubated for 5 hrs by PAMPA assay; assay type: ADME
[4] = Metabolic stability in human liver microsomes assessed as parent compound remaining measured after 60 mins by LC-UV-MS analysis; assay type: ADME, Microsome; details: read-out: Stabilty
[5] = Toxicity in BALB/c mouse assessed as reduction in body weight at 32 mg/kg, iv administered three times a week for 3 weeks; assay type: organism-based; details: in vivo, 504 h
[6] = Observed AUC (0 to infinity) in BALB/c mouse at 16 mg/kg, iv measured upto 24 hrs by HPLC-MS analysis; assay type: ADME, organism-based; parameters: route intravenous, dose 16 mg/kg, time <=24; details: in vivo
[7] = Plasma concentration in BALB/c mouse at 16 to 32 mg/kg, iv measured after 24 hrs; assay type: ADME, organism-based; details: dose 16-32 mg/kg
[8] = tested on: Human immunodeficiency virus 1; assay: as §1, with “11847 harboring integrase G140S/Q148H mutant” for “NL4-3”; assay type: functional, organism-based; details: Human immunodeficiency virus 1, 11847
[9] = (§2) Selectivity index, ratio of IC50 for antiviral activity against HIV-1 11808 harboring protease V32I/I54V/I84V/L90M mutant infected in human TZM-bl cells infected with supernatants from virus-infected human H9 cells to IC50 for antiviral activity against HIV-1 […] infected in human TZM-bl cells infected with supernatants from virus-infected human H9 cells; assay type: functional, Human immunodeficiency virus 1
[10] = as §2, with “12231” for “11808”, “non-nucleoside reverse transcriptase K103N/V179F/Y181C” for “protease V32I/I54V/I84V/L90M”; assay type: functional, Human immunodeficiency virus 1
[11] = Toxicity in BALB/c mouse assessed as effect on liver at 32 mg/kg, iv administered three times a week for 3 weeks by hematoxylin and eosin staining based microscopic imaging analysis; assay type: organism-based; details: in vivo, 504 h
[12] = AUC (0 to t) in BALB/c mouse at 32 mg/kg, iv measured upto 24 hrs by HPLC-MS analysis; assay type: ADME, organism-based; parameters: route intravenous, dose 32 mg/kg, time <=24; details: in vivo
[13] = Tmax in BALB/c mouse at 16 to 32 mg/kg, iv measured upto 24 hrs; assay type: ADME, organism-based; details: in vivo, dose 16-32 mg/kg
[14] = AUC (0 to t) in BALB/c mouse at 16 mg/kg, iv measured upto 24 hrs by HPLC-MS analysis; assay type: ADME, organism-based; parameters: route intravenous, dose 16 mg/kg, time <=24; details: in vivo
[15] = Observed AUC (0 to infinity) in BALB/c mouse at 32 mg/kg, iv measured upto 24 hrs by HPLC-MS analysis; assay type: ADME, organism-based; parameters: route intravenous, dose 32 mg/kg, time <=24; details: in vivo
[16] = Observed clearance in BALB/c mouse at 8 mg/kg, iv measured upto 24 hrs by HPLC-MS analysis; assay type: ADME, organism-based; details: in vivo
[17] = Observed volume of distribution at steady state in BALB/c mouse at 16 mg/kg, iv measured upto 24 hrs by HPLC-MS analysis; assay type: ADME, organism-based; details: in vivo, read-out: Vdss
[18] = Cmax in BALB/c mouse at 16 mg/kg, iv measured upto 24 hrs by HPLC-MS analysis; assay type: ADME, organism-based; parameters: route intravenous, dose 16 mg/kg, time <=24; details: in vivo
[19] = tested on: Human immunodeficiency virus 1; assay: as §1, with “12231 harboring non-nucleoside reverse transcriptase K103N/V179F/Y181C mutant” for “NL4-3”; assay type: functional, organism-based; details: Human immunodeficiency virus 1, 12231
[20] = Observed AUC (0 to infinity) in BALB/c mouse at 8 mg/kg, iv measured upto 24 hrs by HPLC-MS analysis; assay type: ADME, organism-based; parameters: route intravenous, dose 8 mg/kg, time <=24; details: in vivo
[21] = Toxicity in BALB/c mouse assessed as effect on brain at 32 mg/kg, iv administered three times a week for 3 weeks by hematoxylin and eosin staining based microscopic imaging analysis; assay type: organism-based; details: in vivo, 504 h
[22] = tested on: Human immunodeficiency virus 1; assay: as §1, with “11808 harboring protease V32I/I54V/I84V/L90M mutant” for “NL4-3”; assay type: functional, organism-based; details: Human immunodeficiency virus 1, 11808
[23] = as §2, with “7400” for “11808”, “nucleos(t)ide reverse transcriptase M41L/E44D/D67N/T69D/M184VL210W/T215Y” for “protease V32I/I54V/I84V/L90M”; assay type: functional, Human immunodeficiency virus 1
[24] = tested on: Human immunodeficiency virus 1; assay: as §1, with “7400 harboring nucleos(t)ide reverse transcriptase M41L/E44D/D67N/T69D/M184VL210W/T215Y mutant” for “NL4-3”; assay type: functional, organism-based; details: Human immunodeficiency virus 1, 7400
[25] = Cmax in BALB/c mouse at 32 mg/kg, iv measured upto 24 hrs by HPLC-MS analysis; assay type: ADME, organism-based; parameters: route intravenous, dose 32 mg/kg, time <=24; details: in vivo
[26] = Half life in BALB/c mouse at 8 mg/kg, iv measured upto 24 hrs by HPLC-MS analysis; assay type: ADME, organism-based; details: in vivo
[27] = Half life in BALB/c mouse at 32 mg/kg, iv measured upto 24 hrs by HPLC-MS analysis; assay type: ADME, organism-based; details: in vivo
[28] = Cmax in BALB/c mouse at 8 mg/kg, iv measured upto 24 hrs by HPLC-MS analysis; assay type: ADME, organism-based; parameters: route intravenous, dose 8 mg/kg, time <=24; details: in vivo
[29] = Observed clearance in BALB/c mouse at 16 mg/kg, iv measured upto 24 hrs by HPLC-MS analysis; assay type: ADME, organism-based; details: in vivo
[30] = AUC (0 to t) in BALB/c mouse at 8 mg/kg, iv measured upto 24 hrs by HPLC-MS analysis; assay type: ADME, organism-based; parameters: route intravenous, dose 8 mg/kg, time <=24; details: in vivo
[31] = Drug uptake in BALB/c mouse spleen at 16 to 32 mg/kg, iv measured upto 24 hrs; assay type: ADME, organism-based; details: in vivo, dose 16-32 mg/kg
[32] = Plasma concentration in BALB/c mouse at 16 to 32 mg/kg, iv measured after 240 mins; assay type: ADME, organism-based; details: dose 16-32 mg/kg
[33] = Toxicity in BALB/c mouse assessed as effect on kidney at 32 mg/kg, iv administered three times a week for 3 weeks by hematoxylin and eosin staining based microscopic imaging analysis; assay type: organism-based; details: in vivo, 504 h
[34] = Half life in BALB/c mouse at 16 mg/kg, iv measured upto 24 hrs by HPLC-MS analysis; assay type: ADME, organism-based; details: in vivo
[35] = Drug uptake in BALB/c mouse brain at 16 to 32 mg/kg, iv measured upto 24 hrs; assay type: ADME, organism-based; details: in vivo, dose 16-32 mg/kg
[36] = as §2, with “11847” for “11808”, “integrase G140S/Q148H” for “protease V32I/I54V/I84V/L90M”; assay type: functional, Human immunodeficiency virus 1
[37] = Drug excretion in BALB/c mouse at 16 to 32 mg/kg, iv measured upto 24 hrs; assay type: ADME, organism-based; details: in vivo, dose 16-32 mg/kg, read-out: Drug excretion
[38] = Observed volume of distribution at steady state in BALB/c mouse at 8 mg/kg, iv measured upto 24 hrs by HPLC-MS analysis; assay type: ADME, organism-based; details: in vivo, read-out: Vdss
[39] = Toxicity in BALB/c mouse assessed as organism death at 32 mg/kg, iv administered three times a week for 3 weeks; assay type: organism-based; details: in vivo, 504 h

Chain of ATP-dependent RNA helicase DDX3X (O00571 whole entry): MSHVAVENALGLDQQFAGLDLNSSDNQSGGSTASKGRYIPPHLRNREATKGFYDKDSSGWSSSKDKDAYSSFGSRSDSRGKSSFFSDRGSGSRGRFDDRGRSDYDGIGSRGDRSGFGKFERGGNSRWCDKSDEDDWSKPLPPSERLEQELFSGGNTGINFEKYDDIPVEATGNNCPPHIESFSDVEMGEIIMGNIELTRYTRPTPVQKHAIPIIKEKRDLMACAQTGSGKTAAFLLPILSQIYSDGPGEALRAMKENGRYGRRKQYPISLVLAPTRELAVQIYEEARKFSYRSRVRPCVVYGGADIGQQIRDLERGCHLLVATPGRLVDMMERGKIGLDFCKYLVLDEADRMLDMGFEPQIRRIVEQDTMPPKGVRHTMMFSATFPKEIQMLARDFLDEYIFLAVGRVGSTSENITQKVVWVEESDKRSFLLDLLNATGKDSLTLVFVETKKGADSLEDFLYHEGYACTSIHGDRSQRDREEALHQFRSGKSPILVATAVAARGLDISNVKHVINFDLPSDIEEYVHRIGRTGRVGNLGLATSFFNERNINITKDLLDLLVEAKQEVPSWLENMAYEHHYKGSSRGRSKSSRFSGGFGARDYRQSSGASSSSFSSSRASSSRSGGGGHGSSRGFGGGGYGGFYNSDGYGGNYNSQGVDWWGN

## CCCCc1cn(-c2ccc(NC(=O)Nc3ccccc3C)cc2)nn1
[1]
  pIC50: 5.95

## CCCCc1cn(-c2ccc(NC(=O)Nc3cc(O[C@H]4O[C@@H](CO)[C@H](O)[C@@H]4O)ccc3C)cc2)nn1
[2]
  IC50: Not Active
[1]
  pIC50: < 4.30

## CCOP(=O)(OCC)OCCc1cn(-c2ccc(NC(=O)Nc3ccccc3C)cc2)nn1
[3]
  Papp at 5 h: 0.72 ×10⁻⁶ cm/s
[4]
  remaining at 1 h: 53.7%
[1]
  pIC50: < 4.30

## CCCCc1cn(-c2ccc(NC(=O)Nc3cc(O)ccc3C)cc2)nn1
[2]
  pIC50: 6.31

## CCCCc1cn(-c2ccc(NC(=O)Nc3cc(OCOC)ccc3C)cc2)nn1
[2]
  pIC50: 6.09

## CCCCc1cn(-c2ccc(NC(=O)Nc3cc(OC4CCCC4)ccc3C)cc2)nn1
[3]
  Papp at 5 h: 1.96 ×10⁻⁶ cm/s
[4]
  remaining at 1 h: 92.5%
[2]
  pIC50: 6.85
[1]
  pIC50: 6.70

## Cc1ccccc1NC(=O)Nc1ccc(-n2cc(CCN3CCOCC3)nn2)cc1
[2]
  pIC50: 4.22

## CCCCc1cn(-c2ccc(NC(=O)Nc3cccc4cnccc34)cc2)nn1
[3]
  Papp at 5 h: < 0.1 ×10⁻⁶ cm/s
[4]
  remaining at 1 h: 95.2%
[2]
  pIC50: 6.82
[1]
  pIC50: 5.66

## Cc1ccccc1NC(=O)Nc1ccc(-n2cc(CN3CCOCC3)nn2)cc1
[2]
  IC50: Not Active

## Cc1ccccc1NC(=O)Nc1ccc(-n2cc(CCCN3CCOCC3)nn2)cc1
[2]
  pIC50: 4.27

## CCCCc1cn(-c2ccc(NC(=O)Nc3cc(CCC(C)=O)ccc3C)cc2)nn1
[2]
  pIC50: 5.60

## CC(C)CCc1cn(-c2ccc(NC(=O)Nc3cccc4cnccc34)cc2)nn1
[5]
  Activity: Non-Toxic
[6]
  AUC(0-inf): 25700 ng·h/mL
[7]
  concentration at 24 h: 2 µM
[8]
  pIC50: 5.82
[9]
  Ratio IC50: 1.1
[10]
  Ratio IC50: 0.8
[3]
  Papp at 5 h: 0.18 ×10⁻⁶ cm/s
[11]
  Activity: Non-Toxic
[12]
  AUC(0-t) at 24 h: 98500 ng·h/mL
[13]
  Tmax: 1 h
[14]
  AUC(0-t) at 24 h: 23700 ng·h/mL
[15]
  AUC: 6114.4 µg·min/mL
[16]
  clearance: 4.3 mL/min/kg
[17]
  Vd: 7 L/kg
[18]
  Cmax: 15800 ng/mL
[19]
  pIC50: 5.74
[20]
  AUC(0-inf): 30700 ng·h/mL
[4]
  remaining at 1 h: 89.7%
[21]
  Activity: Non-Toxic
[2]
  pIC50: 6.92
[22]
  pIC50: 5.64
[23]
  Ratio IC50: 0.8
[24]
  pIC50: 5.74
[25]
  Cmax: 44400 ng/mL
[26]
  half-life: 8.97 h
[27]
  t1/2: 4.682 h
[28]
  Cmax: 5500 ng/mL
[29]
  clearance: 8 mL/min/kg
[30]
  AUC(0-t) at 24 h: 25600 ng·h/mL
[31]
  Drug uptake: Active
[32]
  concentration at 4 h: 10 µM
[33]
  Activity: Non-Toxic
[1]
  pIC50: 5.68
[34]
  half-life: 7.76 h
[35]
  Drug uptake: Not Active
[36]
  Ratio IC50: 0.7
[37]
  dose excreted at 24 h: 100%
[38]
  Vd: 3.4 L/kg
[39]
  Activity: Non-Toxic

## Cc1ccccc1NC(=O)Nc1ccc(-n2cc(CCO)nn2)cc1
[2]
  pIC50: 4.89

## COCCc1cn(-c2ccc(NC(=O)Nc3ccccc3C)cc2)nn1
[4]
  remaining at 1 h: 94.2%

## O=C(Nc1ccc(-n2cc(CCO[C@H]3O[C@@H](CO)[C@H](O)[C@@H]3O)nn2)cc1)Nc1ccccc1C(F)(F)F
[2]
  IC50: Not Active

## CC(C)CC(=O)OCCc1cn(-c2ccc(NC(=O)Nc3ccccc3C(F)(F)F)cc2)nn1
[3]
  Papp at 5 h: 4.24 ×10⁻⁶ cm/s
[4]
  remaining at 1 h: 49.3%
[1]
  pIC50: < 4.30

## O=C(Nc1ccc(-n2cc(CCO)nn2)cc1)Nc1ccccc1C(F)(F)F
[2]
  pIC50: 4.95
[1]
  pIC50: < 4.30

## CCCCc1cn(-c2ccc(NC(=O)Nc3cc(OP(=O)(OCC)OCC)ccc3C)cc2)nn1
[3]
  Papp at 5 h: 0.68 ×10⁻⁶ cm/s
[4]
  remaining at 1 h: 85.2%
[2]
  pIC50: 6.03
[1]
  pIC50: 5.26

## CCOCc1cn(-c2ccc(NC(=O)Nc3cc(C(C)C)ccc3C)cc2)nn1
[2]
  pIC50: 5.82
[1]
  pIC50: 5.42

## CCCCc1cn(-c2ccc(NC(=O)Nc3cc(OC4CCOC4)ccc3C)cc2)nn1 (centres undefined)
[2]
  pIC50: 7.00
[1]
  pIC50: 5.59

## CCOC(=O)CCc1cn(-c2ccc(NC(=O)Nc3ccccc3C(F)(F)F)cc2)nn1
[3]
  Papp at 5 h: 1.56 ×10⁻⁶ cm/s
[4]
  remaining at 1 h: 16.9%
[2]
  pIC50: 5.69
[1]
  pIC50: < 4.30

Source: ChEMBL document CHEMBL4680261, “DDX3X inhibitors, an effective way to overcome HIV-1 resistance targeting host proteins” (Eur J Med Chem, 2020)
